Data on one compound can be found in US20240182526A1, “COMPOSITIONS AND METHODS FOR MODULTING INFLAMMATORY AND DEGENERATIVE DISORDER” (University of Southern California, priority 2021, published 2024).

Format in all cases: cell-based
One test relates to gp130 and pSRC. The experiment in a line: Co-immunoprecipitation of complex formation between gp130 and pSRC in pig articular chondrocytes. Particulars: pig articular chondrocytes with or without OSM, 4 and 24 hours. Here is the method:
(§1) IP Western, SDS-PAGE and Western blot analysis. For transfections of gp130 wild type (WT) (InVivoGen) and gp130 mutant plasmids (Thermo Scientific), cells were plated 24 h prior to transfection to produce monolayers that were 60% confluent and these were transfected by using Turbo DNAfectin 3000 (cat #G3000, Lambda Biotech) according to the manufacturer's protocol. 72h after transfection, cells were maintained in DMEM (10% FBS, 1% PSA) and were either left untreated or were stimulated with IL-6 (10 ng/mL) and/or OSM (10 ng/mL) for 24 h before cell harvest and protein extraction. For immunoprecipitation assays, cell lysates were incubated with Protein G Agarose (cat #20398, Pierce) and anti-Flag antibody (cat #2368, Cell Signaling) at 4° C. overnight. The immune complexes were sedimented, washed and separated by SDS-PAGE (see below) and further analyzed by Western blot using p-SRC (pY416-SRC) (cat #1246F, Novus Biologicals) or NEMO (cat #18474-1-AP, Proteintech) antibodies and normalized to gp130 (cat #bs-1459R, Bioss) or total SRC (cat #2123, Cell Signaling). For R805 treatment, the immune complexes were sedimented, washed and separated by SDS-PAGE and further analyzed by Western blot using OSMR (cat #ab85575, Abcam), LIFR (Santa cat #515337, Cruz Biotechnology) or p-SRC (pY416-SRC) (Novus Biologicals, cat #1246F). Histone H3 (cat #9715, Cell Signaling), gp130 (cat #bs-1459R, Bioss), total SRC (cat #2123, Cell Signaling) or Flag antibody (cat #14739, Cell Signaling) were used as loading controls.
The studies delineate that gp130 Y814 regulates SRC downstream signaling; since SRC is known to associate with gp130, it was hypothesized that gp130 and SRC are capable of physically interacting on Y814 and hindering this interaction will prevent SRC from signaling. In order to impede this interaction, experiments were performed using an innovative peptide library screen with short and overlapping peptides mimicking the motif of gp130 around Y814 that were individually tested for pSRC downregulation; these peptides ranged from 4-15 amino acids. The peptides contained a protein sequence stretch of consecutive amino acids surrounding gp130 Y814 residue. To test their efficacy, pig articular chondrocytes were stimulated with or without OSM in presence or absence of the peptides followed by co-immunoprecipitation to determine interaction and western blot detecting pSRC activity. […] Due to sequence specificity, the peptide is capable of discriminating among other gp130 regions serving as a competitive inhibitor.

Test [1] addresses T1, heterodimerization of gp130 with IL-6 family of cytokines' alpha receptors (Homo sapiens, UniProt P40189).
T1 construct: A plasmid encoding full-length gp130 (WTgp130; InVivoGen) was used to create the 5 mutants; expressed in transfected cells
As to the kind of experiment: Receptor-competition assay (co-IP of gp130 FLAG with alpha receptors). The conditions noted are these: articular chondrocytes transfected with gp130 FLAG, different doses, 4 and 24 hours. The method, then:
as §1, with “Histone H3 (cat #9715, Cell Signaling), gp130 (cat #bs-1459R, Bioss), total SRC (cat #2123, Cell Signaling) or Flag antibody (cat #14739, Cell Signaling) were used as loading controls.” left out

The next test has as its system c-MYC. The experiment in a line: Western blot of c-MYC in pig articular chondrocytes.
In a further test the test system is pSTAT3. The experiment in a line: Western blot of pSTAT3 in LIF-treated pig articular chondrocytes. Particulars: 4 and 24 hours. The method, then:
For standard western blot, treated and non-treated cells were lysed in RIPA Lysis and Extraction Buffer (Pierce, Rockford, IL) containing protease inhibitors (Pierce) followed by sonication with a 15-second pulse at a power output of 2 using the VirSonic 100 (SP Industries Company, Warminster, PA). Protein concentrations were determined by BCA protein assay (Pierce). Proteins were resolved with SDS-PAGE utilizing 4-15% Mini-PROTEAN TGX Precast Gels and transferred to Trans-Blot Turbo Transfer Packs with a 0.2-μm pore-size nitrocellulose membrane. The SDS-PAGE running buffer, 4-15% Mini-PROTEAN TGX Precast Gels, Trans-Blot Turbo Transfer Packs with a 0.2-μm pore-size nitrocellulose membrane was purchased from Biorad (Hercules, CA). Nitrocellulose membranes were blocked in 5% nonfat milk in 0.05% (v/v) Tween 20 (PBST) (Corning, Manassas, VA). […] Quantification of blots was performed using ImageJ 1.44 followed by Prism9 for analysis.
Experiments were performed to determine whether R805 is inclined to shift the signaling outputs downstream of gp130 promoting differential regulation similar to genetic ablation of Y814. As a readout, protein levels of phosphorylated SRC, MAPK (ERK 1/2) and NF-κB were measured in response to OSM while STAT3 and YAP1 levels were evaluated in response to LIF.

“Also recorded” adds a separate entry of the source.

T1 sequence (P40189 23-918, one chain of several): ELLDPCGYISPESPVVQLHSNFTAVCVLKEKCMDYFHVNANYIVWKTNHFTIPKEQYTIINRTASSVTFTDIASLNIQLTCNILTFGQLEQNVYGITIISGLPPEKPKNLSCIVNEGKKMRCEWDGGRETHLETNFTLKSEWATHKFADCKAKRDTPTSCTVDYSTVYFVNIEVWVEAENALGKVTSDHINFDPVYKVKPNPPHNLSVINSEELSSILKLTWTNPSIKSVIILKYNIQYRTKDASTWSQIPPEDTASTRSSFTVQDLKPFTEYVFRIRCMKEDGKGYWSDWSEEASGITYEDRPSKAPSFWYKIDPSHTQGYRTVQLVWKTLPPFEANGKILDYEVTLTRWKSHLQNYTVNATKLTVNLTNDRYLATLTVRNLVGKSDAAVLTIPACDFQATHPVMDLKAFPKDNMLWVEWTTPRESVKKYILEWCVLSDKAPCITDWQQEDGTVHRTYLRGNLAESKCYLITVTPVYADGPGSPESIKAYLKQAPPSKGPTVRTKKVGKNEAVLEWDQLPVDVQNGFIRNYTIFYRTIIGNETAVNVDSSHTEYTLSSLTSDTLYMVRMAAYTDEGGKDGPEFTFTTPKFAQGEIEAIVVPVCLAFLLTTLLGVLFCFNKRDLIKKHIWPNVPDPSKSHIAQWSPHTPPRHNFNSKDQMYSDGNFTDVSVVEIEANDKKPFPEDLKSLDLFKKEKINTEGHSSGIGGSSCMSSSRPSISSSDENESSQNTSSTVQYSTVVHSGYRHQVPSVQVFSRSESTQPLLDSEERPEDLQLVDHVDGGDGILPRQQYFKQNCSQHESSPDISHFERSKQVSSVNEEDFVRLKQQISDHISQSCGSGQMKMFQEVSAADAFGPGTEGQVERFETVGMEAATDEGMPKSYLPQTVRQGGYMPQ

Turning to `Cc1ccc(-c2csc(NC(=O)c3ccccn3)n2)cc1` [Peptide R805], in the test on gp130 and pSRC, the “complex formation between gp130 and pSRC (gp130-SRC interaction)” value is listed as “able to prevent endogenous interaction of SRC with gp130; also recorded: prevents SRC binding to gp130”. In addition, the “IL-6 family-induced heterodimerization of gp130 with α-receptors” value in test [1] was “markedly suppressed; also recorded: inhibits heterodimerization of gp130 with IL-6 family of cytokines' alpha receptors”. Further, the “protein levels of c-MYC (MYC signaling)” value in the test on c-MYC is reported as “does not activate MYC signaling”. For the same compound, the “pSTAT3 downstream of LIF” value in the test on pSTAT3 is recorded as “minimal inhibitory effect; also recorded: does not affect pro-regenerative signaling downstream of gp130”.
